Assay results from US20070178537A1, “Assays for detection of bioactive compounds that interact with heat shock protein 90” (Sloan-Kettering Institute for Cancer Research, priority 2003, published 2007).
Where “and” joins values, the source holds several entries; their conditions need not be identical. Equal entries are not always repeated. Where two headings read alike, the source gives them in different places.

Legend:
[1] = tested on: Her2 in SKBr3 cells; assay: Her2-blot (whole-cell immunoassay of Her2 degradation); type: cell-based, human
Procedure: The human cancer cell lines SKBr3 and A431 were obtained from the American Type Culture Collection (Manassas, Va.) and maintained in 1:1 mixture of DME:F12 supplemented with 2 mM glutamine, 50 units/mL penicillin, 50 units/mL streptomycin and 5% heat inactivated fetal bovine serum (FBS) (Gemini Bioproducts) and incubated at 37° C. in 5% CO2. Stock culture was grown in T-175 flasks containing 30 mL of DME (HG, F-12, non-essential amino acids, and penicillin and streptomycin), with glutamine, and 10% FBS. Cells were dissociated with 0.05% trypsin and 0.02% EDTA in phosphate buffer saline (PBS) without calcium and magnesium. Experimental cultures of SKBr3 were plated in black, clear-bottom microtiter plates (Corning # 3603) (3,000 cells per well) in growth medium ([…]), and allowed to attach for at least 48 h at 37° C. and 5% CO2. Some wells were left without cells to serve as the blank. Growth medium (100 μL) with drug or vehicle (DMSO) was carefully added to the wells and the microtiter plates were placed at 37° C. and 5% CO2. […] Following incubation (6 h or 24 h), wells were washed twice with ice-cold tris buffer saline (TBS) containing 0.1% Tween20 (TBST) (200 μL). A house vacuum source attached to an 8-channel aspirator was used to remove the liquid from the microplates. Further, methanol (100 μL at −20° C.) was added to each well and the plate was left at 4° C. for 10 min. Methanol was removed by washing with TBST (2×200 μL). The plate was further incubated at RT for 1 h with SuperBlock® (Pierce # 37535) (200 μL) and overnight at 4° C. with the anti-Her-2 antibody (Santa Cruz Biotechnology # SC-284) ([…], 1:200 in SuperBlock®). Each well was washed with TBST (2×200 μL) and incubated at RT for 2 h with an anti-rabbit HRP-linked antibody (Sigma # A0545) (100 μL, 1:1000 in SuperBlock®). […] The plate was read 5 min later in an Analyst AD plate reader (Molecular Devices). […] Readings from wells containing only control IgG and the corresponding HRP-linked secondary antibody were set as background and deducted from all measured values. […]

[2] = target: Hsp90 beta (Homo sapiens, UniProt P08238); assay: Fluorescence polarization competitive displacement of GM-BODIPY, Hsp90 beta; type: binding; details: 30 nM Hsp90 beta, 5 nM GM BODIPY, 7 h
Description: Specific ligand binding was plotted against the log10 inhibitor concentration and EC50 values calculated using a non linear least square curve fitting program in Prism 4.0.

[3] = target: T1, Hsp90 alpha (Homo sapiens, UniProt P07900); assay: Fluorescence polarization competitive displacement of GM-BODIPY from Hsp90; type: binding; details: ratio of EC50 values
T1 construct: purchased Stressgen SPP776
Description: The method comprises the steps of: • (a) combining the candidate molecule with Hsp90 in the presence of a fluorescently-labeled molecule known to bind to Hsp90; • (b) exciting the fluorescent label using polarized light to produce a fluorescent emission; • (c) observing the degree of polarization of the fluorescent emission; and • (d) comparing the degree of polarization determined in step (c) to a standard value determined for the fluorescently labeled molecule when it is bound to Hsp90. When the fluorescently-labeled molecule is bound to the Hsp90, the emission is substantially polarized. On the other hand, when the fluorescently-labeled molecule has been wholly or partially displaced by candidate molecule, the extent to which the emission is polarized decreases as a result of the rotational freedom of the unbound fluorescently labeled species.
Maximum concentration of used DMSO was 0.25% (v/v). The plate was left on a shaker at 4° C. for 5 h and the FP values in mP were recorded.
Ad-But was again used as a control.
A mixture of 30 nM Hsp90 alpha, 30 nM Hsp90 beta or 200 nM Grp94-His, respectively with 5 nM GM BODIPY was added and the plate incubated at 4EC for 7 h. Specific ligand binding was plotted against the log10 inhibitor concentration and EC50 values calculated using a non linear least square curve fitting program in Prism 4.0.

[4] = tested on: tumor hsp90 versus normal tissue Hsp90; assay: Fluorescence polarization assay with tumor cell and normal tissue lysates; type: binding; details: FIG. 11 and FIG. 22C
Procedure: For use in the assay of the invention, cell lysates are made using the following protocol • collect cells • adherent cells: trypsinize (or scrape), harvest cells in 15 ml conical tubes and centrifuge at 1,600 RPM for 5 minutes at 2 to 8 C • (use confluent T-175 flask to obtain 0.5 ml of lysate) • floating cells: pellet cells by centrifugation 1600 rpm for 5 minutes at 2 to 8 C • wash 2× with 5 ml of PBS buffer • resuspend the pellet in 1 ml of PBS buffer and transfer cells to an eppendorf tube • centrifuge, aspirate supernatant, and freeze the pellet O/N at −70° C. • resuspend in lysis buffer B (Felts buffer) (1×10^6 cells per 100 l of buffer B) • incubate on the rotor for 2 hours at 2 to 8° C. • centrifuge the samples at 13,200 RPM for 30 min at 2 to 8° C. • transfer the supernatant to a fresh tube • quantitate protein concentration with the Pierce BCA assay • add 0.5 uL of 1M DTT/mL lysate • store samples at −70 C; before conducting an experiment thaw samples on ice and keep samples on ice throughout the course of experiment.
Cellular lysates were prepared in this manner from normal brain tissue, CML cell line K562 and breast cancer cell line SKBr3. For constructing a saturation curve, 5 nM GM BODIPY was added to the lysate, and the fluorescence polarization assay of the invention was performed. […]
The assay is stable and results in reproducible data (6-24 h readings presented). […]

[5] = Homo sapiens, SK-BR-3, Her2-blot, read-out: IC50 for Her2 degradation

Hsp90 beta, sequence (P08238 whole entry): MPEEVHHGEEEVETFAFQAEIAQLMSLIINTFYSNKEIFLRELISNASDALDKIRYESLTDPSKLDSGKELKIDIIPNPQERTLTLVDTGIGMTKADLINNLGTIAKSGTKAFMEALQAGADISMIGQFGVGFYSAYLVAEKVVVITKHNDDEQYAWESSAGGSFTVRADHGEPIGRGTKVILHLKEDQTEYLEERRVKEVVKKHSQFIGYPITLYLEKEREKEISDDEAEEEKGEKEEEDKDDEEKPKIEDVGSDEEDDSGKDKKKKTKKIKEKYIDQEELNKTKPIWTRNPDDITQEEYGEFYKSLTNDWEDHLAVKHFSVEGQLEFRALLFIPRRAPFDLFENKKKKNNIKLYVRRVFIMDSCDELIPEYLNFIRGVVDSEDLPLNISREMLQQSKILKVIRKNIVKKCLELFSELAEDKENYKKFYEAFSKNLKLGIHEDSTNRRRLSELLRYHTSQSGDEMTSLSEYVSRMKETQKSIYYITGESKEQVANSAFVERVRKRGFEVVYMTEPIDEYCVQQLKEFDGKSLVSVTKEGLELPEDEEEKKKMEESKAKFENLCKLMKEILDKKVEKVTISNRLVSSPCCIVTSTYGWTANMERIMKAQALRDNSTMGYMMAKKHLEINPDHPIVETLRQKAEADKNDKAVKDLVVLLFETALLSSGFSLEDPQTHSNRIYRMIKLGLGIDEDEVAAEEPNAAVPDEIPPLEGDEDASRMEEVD

## COC1=C2C[C@@H](C)C[C@H](OC)[C@H](O)[C@@H](C)/C=C(\C)[C@H](OC(N)=O)[C@@H](OC)/C=C\C=C(/C)C(=O)NC(=CC1=O)C2=O [GM, geldanamycin]
[1]; [5]
  IC50: 0.017 µM

## CCNC(=O)[C@H]1O[C@@H](n2cnc3c(N)ncnc32)[C@H](O)[C@@H]1O [NECA]
[2]
  Inhibition of cytosolic Hsp90 b (FIG. 13A): does not inhibit

## CCCCn1c(Cc2cc(OC)c(OC)c(OC)c2)nc2c(N)ncnc21 [PU3]
[3]
  times weaker Hsp90 inhibitor than 17AAG: 30

## C#CCCCn1c(Cc2cc(OC)c(OC)c(OC)c2Cl)nc2c(N)nc(F)nc21 [PU24FCl]
[1]; several plates at different time periods, read-out: IC50s in separate readings of the Her2-blot
  IC50: 4 µM and 4.18 µM and 4.54 µM
[4]
  Binding affinity for tumor versus normal tissue Hsp90: difference in binding affinity

## C[C@@H]1C[C@H]2O[C@@H]2/C=C\C=C\C(=O)Cc2c(Cl)c(O)cc(O)c2C(=O)O1 [RD, radicicol]
[1]; [5]
  IC50: 0.028 µM
